In patent publication US20230279001A1, “IMIDAZO[1,2-A]PYRIDINE COMPOUNDS FOR THE TREATMENT OF AUTOIMMUNE DISEASE” (Hoffmann-La Roche Inc., priority 2020, published 2023):

Tests used:
Assay type in all cases: cell-based
[1] = molecular target: human TLR7 (Homo sapiens (Human), UniProt Q9NYK1); experiment: HEK293-Blue-hTLR-7 cells assay; settings: HEK293-Blue-hTLR7 cells, R848 stimulation, 20 hrs, SEAP reporter; read-out: HEK/hTLR7 IC50
Text: (§1) A stable HEK293-Blue-hTLR-7 cell line was purchased from InvivoGen (Cat. #: hkb-htlr7, San Diego, Calif., USA). These cells were originally designed for studying the stimulation of human TLR7 by monitoring the activation of NF-κB. A SEAP (secreted embryonic alkaline phosphatase) reporter gene was placed under the control of the IFN-β minimal promoter fused to five NF-κB and AP-1-binding sites. The SEAP was induced by activating NF-κB and AP-1 via stimulating HEK-Blue hTLR7 cells with TLR7 ligands. Therefore the reporter expression was declined by TLR7 antagonist under the stimulation of a ligand, such as R848 (Resiquimod), for incubation of 20 hrs. The cell culture supernatant SEAP reporter activity was determined using QUANTI-Blue™ kit (Cat. #: rep-qb1, Invivogen, San Diego, Ca, USA) at a wavelength of 640 nm, a detection medium that turns purple or blue in the presence of alkaline phosphatase.
(§2) HEK293-Blue-hTLR7 cells were incubated at a density of 250,000˜450,000 cells/mL in a volume of 170 μL in a 96-well plate in Dulbecco's Modified Eagle's medium (DMEM) containing 4.5 g/L glucose, 50 U/mL penicillin, […], […], 2 mM L-glutamine, 10% (v/v) heat-inactivated fetal bovine serum with addition of 20 μL test compound in a serial dilution in the presence of final DMSO at 1% and 10 μL of 20 uM R848 in above DMEM, perform incubation under 37° C. in a CO2 incubator for 20 hrs. Then 20 μL of the supernatant from each well was incubated with 180 μL Quanti-blue substrate solution at 37° C. for 2 hrs and the absorbance was read at 620-655 nm using a spectrophotometer. The signaling pathway that TLR7 activation leads to downstream NF-κB activation has been widely accepted, and therefore similar reporter assay was modified for evaluating TLR7 antagonist.

[2] = molecular target: human TLR8 (Homo sapiens (Human), UniProt Q9NR97); experiment: HEK293-Blue-hTLR-8 cells assay; settings: HEK293-Blue-hTLR8 cells, R848 stimulation, 20 hrs, SEAP reporter; read-out: HEK/hTLR8 IC50
Text: as §1, with “HEK293-Blue-hTLR-8” for “HEK293-Blue-hTLR-7”, “hkb-htlr8,” for “hkb-htlr7,”, “TLR8” for “TLR7”, “hTLR8” for “hTLR7”, “R848,” for “R848 (Resiquimod),”, “rep-gb1,” for “rep-qb1,”
as §2, with “HEK293-Blue-hTLR8 cells were” for “HEK293-Blue-hTLR7 cells were”, “μL of 60 uM R848” for “μL of 20 uM R848”, “read at 620655 nm using” for “read at 620-655 nm using”, “pathway that TLR8 activation leads” for “pathway that TLR7 activation leads”, “for evaluating TLR8 antagonist.” for “for evaluating TLR7 antagonist.”

[3] = molecular target: TLR9 (Homo sapiens (Human), UniProt Q9NR96); experiment: HEK293-Blue-hTLR-9 cells assay; settings: HEK293-Blue-hTLR9 cells, ODN2006 stimulation, 20 hrs, SEAP reporter; read-out: HEK/hTLR9 IC50
Text: as §1, with “HEK293-Blue-hTLR-9” for “HEK293-Blue-hTLR-7”, “hkb-htlr9,” for “hkb-htlr7,”, “TLR9” for “TLR7”, “hTLR9” for “hTLR7”, “ODN2006 (Cat. #: tlr1-2006-1, Invivogen, San Diego, Calif., USA),” for “R848 (Resiquimod),”, “Calif.,” for “Ca,”
HEK293-Blue-hTLR9 cells were incubated at a density of 250,000˜450,000 cells/mL in a volume of 170 μL in a 96-well plate in Dulbecco's Modified Eagle's medium (DMEM) containing 4.5 g/L glucose, 50 U/mL penicillin, […], 2 mM L-glutamine, 10% (v/v) heat-inactivated fetal bovine serum with addition of 20 μL test compound in a serial dilution in the presence of final DMSO at 1% and 10 μL, of 20 uM ODN2006 in above DMEM, perform incubation under 37° C. in a CO2 incubator for 20 hrs. Then 20 μL of the supernatant from each well was incubated with 180 μL, Quanti-blue substrate solution at 37° C. for 2 h and the absorbance was read at 620655 nm using a spectrophotometer. The signaling pathway that TLR9 activation leads to downstream NF-κB activation has been widely accepted, and therefore similar reporter assay was modified for evaluating TLR9 antagonist.

human TLR8, sequence (Q9NR97 27-1041): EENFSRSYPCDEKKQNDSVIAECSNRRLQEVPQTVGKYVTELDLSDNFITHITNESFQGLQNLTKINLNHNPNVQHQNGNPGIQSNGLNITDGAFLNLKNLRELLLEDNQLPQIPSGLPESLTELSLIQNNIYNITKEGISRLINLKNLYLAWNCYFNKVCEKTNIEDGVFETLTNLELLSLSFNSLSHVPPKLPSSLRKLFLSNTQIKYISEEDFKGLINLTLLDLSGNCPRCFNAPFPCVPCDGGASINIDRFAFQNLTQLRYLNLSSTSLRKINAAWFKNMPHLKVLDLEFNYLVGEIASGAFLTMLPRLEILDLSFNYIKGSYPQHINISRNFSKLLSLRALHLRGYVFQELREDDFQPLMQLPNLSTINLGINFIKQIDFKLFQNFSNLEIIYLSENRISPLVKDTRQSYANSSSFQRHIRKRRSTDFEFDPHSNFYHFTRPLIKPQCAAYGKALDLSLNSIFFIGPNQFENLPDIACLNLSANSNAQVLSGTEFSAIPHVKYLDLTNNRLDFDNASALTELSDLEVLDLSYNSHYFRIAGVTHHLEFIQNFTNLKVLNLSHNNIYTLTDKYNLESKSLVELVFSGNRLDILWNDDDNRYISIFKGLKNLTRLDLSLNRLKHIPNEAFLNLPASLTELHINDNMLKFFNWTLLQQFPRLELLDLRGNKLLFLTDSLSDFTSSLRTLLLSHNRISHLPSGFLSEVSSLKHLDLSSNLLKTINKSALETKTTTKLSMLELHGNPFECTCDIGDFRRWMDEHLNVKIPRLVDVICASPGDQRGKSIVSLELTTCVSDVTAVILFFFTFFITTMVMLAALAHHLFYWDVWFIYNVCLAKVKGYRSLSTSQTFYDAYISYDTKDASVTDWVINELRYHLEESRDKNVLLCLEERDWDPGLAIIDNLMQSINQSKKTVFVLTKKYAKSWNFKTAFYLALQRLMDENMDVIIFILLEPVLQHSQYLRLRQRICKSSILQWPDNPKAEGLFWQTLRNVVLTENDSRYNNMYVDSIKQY
human TLR7, sequence (Q9NYK1 27-1049): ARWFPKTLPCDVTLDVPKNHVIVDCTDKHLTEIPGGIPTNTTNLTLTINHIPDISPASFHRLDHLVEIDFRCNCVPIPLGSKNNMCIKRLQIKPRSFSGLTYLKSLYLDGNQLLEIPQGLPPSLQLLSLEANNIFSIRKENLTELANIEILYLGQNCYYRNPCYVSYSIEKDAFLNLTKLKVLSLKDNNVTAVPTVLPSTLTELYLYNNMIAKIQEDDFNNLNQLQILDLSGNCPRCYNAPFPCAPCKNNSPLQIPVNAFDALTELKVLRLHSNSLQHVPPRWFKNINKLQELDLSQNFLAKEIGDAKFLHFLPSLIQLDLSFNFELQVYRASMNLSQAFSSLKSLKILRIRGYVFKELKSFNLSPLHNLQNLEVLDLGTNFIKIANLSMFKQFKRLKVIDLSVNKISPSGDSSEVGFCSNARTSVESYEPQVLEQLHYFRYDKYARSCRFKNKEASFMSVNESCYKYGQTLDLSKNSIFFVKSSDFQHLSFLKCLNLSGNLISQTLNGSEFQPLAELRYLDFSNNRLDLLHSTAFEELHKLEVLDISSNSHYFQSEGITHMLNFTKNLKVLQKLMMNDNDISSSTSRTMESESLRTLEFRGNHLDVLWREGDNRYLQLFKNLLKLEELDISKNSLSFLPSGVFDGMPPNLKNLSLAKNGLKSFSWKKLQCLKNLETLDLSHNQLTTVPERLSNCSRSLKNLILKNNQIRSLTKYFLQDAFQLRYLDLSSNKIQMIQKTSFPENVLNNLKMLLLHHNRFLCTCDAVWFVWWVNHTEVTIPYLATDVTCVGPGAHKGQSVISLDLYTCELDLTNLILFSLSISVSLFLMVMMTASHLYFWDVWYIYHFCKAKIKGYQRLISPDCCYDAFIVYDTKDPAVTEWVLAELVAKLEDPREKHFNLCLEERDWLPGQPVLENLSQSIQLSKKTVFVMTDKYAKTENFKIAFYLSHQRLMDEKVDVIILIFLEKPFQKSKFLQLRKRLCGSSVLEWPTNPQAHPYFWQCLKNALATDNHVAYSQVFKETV
TLR9, sequence (Q9NR96 26-1032): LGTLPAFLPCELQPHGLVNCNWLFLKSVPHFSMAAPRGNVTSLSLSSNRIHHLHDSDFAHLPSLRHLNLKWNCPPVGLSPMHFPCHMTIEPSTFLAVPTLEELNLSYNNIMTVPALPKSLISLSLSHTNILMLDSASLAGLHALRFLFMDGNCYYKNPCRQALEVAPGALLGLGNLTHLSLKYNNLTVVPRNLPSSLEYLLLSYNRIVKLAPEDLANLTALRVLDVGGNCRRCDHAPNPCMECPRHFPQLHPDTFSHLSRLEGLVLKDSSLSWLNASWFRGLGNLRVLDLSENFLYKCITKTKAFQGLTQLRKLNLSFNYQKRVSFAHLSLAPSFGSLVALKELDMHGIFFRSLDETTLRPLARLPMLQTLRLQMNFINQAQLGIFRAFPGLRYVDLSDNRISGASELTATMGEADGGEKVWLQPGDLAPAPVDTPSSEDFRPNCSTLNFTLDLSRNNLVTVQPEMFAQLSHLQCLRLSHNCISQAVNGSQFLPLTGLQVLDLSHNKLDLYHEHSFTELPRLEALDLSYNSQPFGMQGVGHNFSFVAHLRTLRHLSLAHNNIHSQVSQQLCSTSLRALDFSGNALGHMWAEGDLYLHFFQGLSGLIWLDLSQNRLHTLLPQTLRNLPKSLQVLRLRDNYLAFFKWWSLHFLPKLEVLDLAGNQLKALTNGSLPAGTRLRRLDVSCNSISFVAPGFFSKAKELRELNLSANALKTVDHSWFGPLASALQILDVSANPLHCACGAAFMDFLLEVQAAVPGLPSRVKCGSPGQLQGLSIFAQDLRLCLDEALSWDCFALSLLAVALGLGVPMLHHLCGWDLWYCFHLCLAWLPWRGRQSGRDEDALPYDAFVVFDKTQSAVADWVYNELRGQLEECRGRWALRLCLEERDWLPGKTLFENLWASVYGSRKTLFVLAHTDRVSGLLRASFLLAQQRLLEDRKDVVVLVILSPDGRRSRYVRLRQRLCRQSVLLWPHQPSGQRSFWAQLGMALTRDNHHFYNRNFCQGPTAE

Row | Structure (SMILES) | IC50 [1] [nM] | IC50 [2] [nM] | IC50 [3] [nM]
1 | Cc1cn2cc(-c3ccc(N4CCC(N5CCNCC5)CC4)nc3C(C)C)cc(C)c2n1 [Example 3, 6-[2-isopropyl-6-(4-piperazin-1-yl-1-piperidyl)-3-pyridyl]-2,8-dimethyl-imidazo[1,2-a]pyridine] | 5.8 | 1.2 | 198
2 | Cc1cn2cc(-c3ccc(N4CCC(N5CC(C)(N)C5)CC4)nc3C(F)F)cc(C)c2n1 [Example 12, 1-[1-[6-(difluoromethyl)-5-(2,8-dimethylimidazo[1,2-a]pyridin-6-yl)-2-pyridyl]-4-piperidyl]-3-methyl-azetidin-3-amine] | 16.3 | 1.1 | 145
3 | CCc1nc(N2CCC(N3C[C@@H](N)[C@H](OC)C3)CC2)ccc1-c1cc(C)c2nccn2c1 [Example 15, (3R,4R)-1-[1-[6-ethyl-5-(8-methylimidazo[1,2-a]pyridin-6-yl)-2-pyridyl]-4-piperidyl]-4-methoxy-pyrrolidin-3-amine] | 2.7 | 0.3 | 286
4 | Cc1c(-c2ccc(N3CCC(N4CCNCC4)CC3)nc2C(C)C)cn2ccnc2c1C [Example 7, 6-[2-isopropyl-6-(4-piperazin-1-yl-1-piperidyl)-3-pyridyl]-7,8-dimethyl-imidazo[1,2-a]pyridine] | 22.7 | 8.6 | 112
5 | Cc1cn2cc(-c3ccc(N4CCC(N5CCNCC5)CC4)nc3C(F)F)cc(C)c2n1 [Example 11, 6-[2-(difluoromethyl)-6-(4-piperazin-1-yl-1-piperidyl)-3-pyridyl]-2,8-dimethyl-imidazo[1,2-a]pyridine] | 16.3 | 16.8 | 111
6 | Cc1cc(-c2ccc(N3CCC(N4CCNCC4)CC3)nc2C(F)F)cn2ccnc12 [Example 10, 6-[2-(difluoromethyl)-6-(4-piperazin-1-yl-1-piperidyl)-3-pyridyl]-8-methyl-imidazo[1,2-a]pyridine] | 1.9 | 2.8 | 217
7 | Cc1cn2cc(-c3ccc(N4CCN5CCNCC5C4)nc3C(C)C)cc(C)c2n1 (stereo not drawn) [Example 8, 2-[5-(2,8-dimethylimidazo[1,2-a]pyridin-6-yl)-6-isopropyl-2-pyridyl]-1,3,4,6,7,8,9,9a-octahydropyrazino[1,2-a]pyrazine] | 6.7 | 2.3 | 294
8 | Cc1cn2cc(-c3ccc(N4CCC(N)CC4)nc3C(C)C)cc(C)c2n1 [Example 4, 1-[5-(2,8-dimethylimidazo[1,2-a]pyridin-6-yl)-6-isopropyl-2-pyridyl]piperidin-4-amine] | 8.9 | 2.9 | 154
9 | Cc1cc(-c2ccc(N3CCC(N4CCNCC4)CC3)nc2C(C)C)cn2ccnc12 [Example 2, 6-[2-isopropyl-6-(4-piperazin-1-yl-1-piperidyl)-3-pyridyl]-8-methyl-imidazo[1,2-a]pyridine] | 1.6 | 1.3 | 151

Next, values leading:

Row | IC50 [1] [nM] | IC50 [2] [nM] | IC50 [3] [nM] | Structure (SMILES)
10 | 13.2 | 10.7 | 169 | Cc1cc(-c2cc(C)c3nccn3c2)cnc1N1CCC(N2CCN(C)CC2)CC1 [Example 9, 8-methyl-6-[5-methyl-6-[4-(4-methylpiperazin-1-yl)-1-piperidyl]-3-pyridyl]imidazo[1,2-a]pyridine]
11 | 6.9 | 11.2 | 92 | COc1nc(N2CCC(N3CCNCC3)CC2)ccc1-c1cc(C)c2nccn2c1 [Example 25, 6-[2-methoxy-6-(4-piperazin-1-yl-1-piperidyl)-3-pyridyl]-8-methyl-imidazo[1,2-a]pyridine]
12 | 3.3 | 40 | 132 | CCc1cc(-c2cc(C)c3nccn3c2)cnc1N1CCC2(CCNCC2)CC1 [Example 22, 3-[3-ethyl-5-(8-methylimidazo[1,2-a]pyridin-6-yl)-2-pyridyl]-3,9-diazaspiro[5.5]undecane]
13 | 3.9 | 0.4 | 216 | CCc1nc(N2CCC(N3CC4(CNCCO4)C3)CC2)ccc1-c1cc(C)c2nccn2c1 [Example 14, 2-[1-[6-ethyl-5-(8-methylimidazo[1,2-a]pyridin-6-yl)-2-pyridyl]-4-piperidyl]-5-oxa-2,8-diazaspiro[3.5]nonane]
14 | 21.4 | 30.4 | 227 | Cc1cn2cc(-c3ccc(N4CCNC[C@H]4CO)nc3C(C)C)cc(C)c2n1 [Example 5, [(2S)-1-[5-(2,8-dimethylimidazo[1,2-a]pyridin-6-yl)-6-isopropyl-2-pyridyl]piperazin-2-yl]methanol]
15 | 17.3 | 1 | 224 | CCc1nc(N2CCC(N3C[C@@H](N)[C@H](OC)C3)CC2)ccc1-c1cc(C)c2nc(C)cn2c1 [Example 17, (3R,4R)-1-[1-[5-(2,8-dimethylimidazo[1,2-a]pyridin-6-yl)-6-ethyl-2-pyridyl]-4-piperidyl]-4-methoxy-pyrrolidin-3-amine]
16 | 35.8 | 41.8 | 108 | CCc1nc(N2CCC(C)(N)CC2)ccc1-c1cc(C)c2nc(C)cn2c1 [Example 20, 1-[5-(2,8-dimethylimidazo[1,2-a]pyridin-6-yl)-6-ethyl-2-pyridyl]-4-methyl-piperidin-4-amine]
17 | 5.9 | 3.6 | 140 | CCc1nc(N2CCC(N3CCNCC3)CC2)ccc1-c1cc(C)c2nc(C)cn2c1 [Example 21, 6-[2-ethyl-6-(4-piperazin-1-yl-1-piperidyl)-3-pyridyl]-2,8-dimethyl-imidazo[1,2-a]pyridine]
